# From BindingDB's records for doi:10.1016/s0960-894x(98)00197-8 (Pharmacia & Upjohn, 1999)
# Target: Human immunodeficiency virus type 1 protease (Human immunodeficiency virus 1, UniProt Q72874)
# Test: Compound was evaluated for in vitro inhibition of human immunodeficiency virus type 1 (HIV-1) Protease
row,Ki,Compound
1,0.1 nM,"CCC(c1cccc(NS(=O)(=O)c2ccc(C#N)cn2)c1)C1C(=O)CC(CC)(c2cccc(NS(=O)(=O)c3ccc(C#N)cn3)c2)OC1=O (configuration not stated) [2N-[3-(1-{2-[3-(5-cyano-2-pyridylsulfonamido)phenyl]-2-ethyl-4-hydroxy-6-oxo-3,6-dihydro-2H-5-pyranyl}propyl)phenyl]-5-cyano-2-pyridinesulfonamide]"
2,0.1 nM,"CCCC1(CCc2ccccc2)CC(=O)C(C(CC)c2cccc(NS(=O)(=O)c3ccc(C#N)cn3)c2)C(=O)O1 (configuration not stated) [5-cyano-N-(3-{1-[4-hydroxy-2-oxo-6-(2-phenylethyl)-6-propyl-5,6-dihydro-2H-pyran-3-yl]propyl}phenyl)pyridine-2-sulfonamide]"
